# Experiments:
# [1] = tested on: Salmonella typhimurium, CMCC 50115; assay: MIC testing, broth microdilution in CAMHB; type: cell-based; details: 37° C., 18-20 hr, lowest concentration that completely inhibits visible growth; for MIC: Salmonella enterica, read-out: Compound MICs, Salmonella typhimurium, CMCC 50115
# Experimental: (§1) Compounds 1-71 were subsequently tested to determine MICs of the compounds relative to the following five species/strains of bacteria: Staphylococcus aureus, NRS384; Enterococcus faecalis, ATCC 51575; Salmonella typhimurium, CMCC 50115; Escherichia coli, ATCC BAA-198; and Acinetobacter baumannii, ATCC 17978. MIC testing of compounds was conducted according to the following protocol.
# (§2) For each strain to be tested, made fresh streaks onto CAMHA from −80° C. glycerol stocks.
# (§3) • CAMHB: Dissolved 22 g of the powder per 1 L of purified water. Mixed well. Autoclaved at 121° C. for 10 minutes. Stored at room temperature (RT) for no more than 1 week. • Saline: Dissolved 9 g of the powder per 1 L of purified water. Mixed well. Autoclaved at 121° C. for 30 minutes. Stored at room temperature (RT) for no more than 1 week.
# (§4) Prepared the stock solutions of the tested compounds.
# (§5) For compounds: • a) Dispensed 20 ul compound to the wells in column 1, and 20 ul DMSO to the wells in column 2 to 12; • b) Diluted the compounds by transferring 10 ul compounds from column 1 to 20 ul DMSO in column 2; mix with pipette. • c) Repeated until column 11 to get 3×serial dilutions. Column 12 was the DMSO control.
# (§6) A multichannel pipette was used to deliver 1 μl of the diluted compound into each well of the corresponding daughter plate.
# (§7) Scraped 4-8 single colonies from an agar plate into 5 ml saline in a 14 ml Falcon conical tube. Vortexed the tube to suspend the bacteria. Adjusted the turbidity to ˜0.2 (corresponding to 0.5 McFarland) with an Ultrospec 10 Cell density meter.
# (§8) The strain suspension was diluted 200-fold in CAMHB medium and dispense into a sterile reservoir. A multichannel pipette was then used to deliver 99 μl of the diluted inocula into each well of the corresponding daughter plate.
# (§9) Incubate the daughter plates at 37° C., 85% humidity for 18-20 hr.
# (§10) A magnifying mirror device was used for ease of scoring the presence or absence of growth in the wells. 96-well micro-plates were photographed.
# [2] = tested on: Staphylococcus aureus, NRS384; assay: MIC testing, broth microdilution in CAMHB; type: cell-based; details: 18-20 hr, lowest concentration that completely inhibits visible growth; for MIC: Staphylococcus aureus, NRS384, 37° C., read-out: Compound MICs, Staphylococcus aureus, NRS384; for Compound MICs, Staphylococcus aureus, NRS384: 37° C.
# Experimental: as §1, §2, §3, §4, §5, §6, §7, §8, §9, §10
# [3] = tested on: Acinetobacter baumannii, ATCC 17978; assay: MIC testing, broth microdilution in CAMHB; type: cell-based; details: 18-20 hr, lowest concentration that completely inhibits visible growth; for MIC: Acinetobacter baumannii, ATCC17978, 37° C., read-out: Compound MICs, Acinetobacter baumannii, ATCC 17978; for Compound MICs, Acinetobacter baumannii, ATCC 17978: 37° C.
# Experimental: as §1, §2, §3, §4, §5, §6, §7, §8, §9, §10
# [4] = tested on: Enterococcus faecalis, ATCC 51575; assay: MIC testing, broth microdilution in CAMHB; type: cell-based; details: 18-20 hr, lowest concentration that completely inhibits visible growth; for MIC: Enterococcus faecalis, ATCC51575, 37° C., read-out: Compound MICs, Enterococcus faecalis, ATCC 51575; for Compound MICs, Enterococcus faecalis, ATCC 51575: 37° C.
# Experimental: as §1, §2, §3, §4, §5, §6, §7, §8, §9, §10
# [5] = tested on: Escherichia coli, ATCC BAA-198; assay: MIC testing, broth microdilution in CAMHB; type: cell-based; details: 18-20 hr, lowest concentration that completely inhibits visible growth; for MIC: Escherichia coli, ATCCBAA198, 37° C., read-out: Compound MICs, Escherichia coli, ATCC BAA-198; for Compound MICs, Escherichia coli, ATCC BAA-198: 37° C.
# Experimental: as §1, §2, §3, §4, §5, §6, §7, §8, §9, §10
# P. aeruginosa PA14 = assay: MIC testing against P. aeruginosa PA14, same protocol; type: cell-based, Pseudomonas aeruginosa; details: according to the protocol above
# Experimental: For each strain to be tested, made fresh streaks onto CAMHA from −80° C. glycerol stocks. • CAMHB: Dissolved 22 g of the powder per 1 L of purified water. Mixed well. Autoclaved at 121° C. for 10 minutes. Stored at room temperature (RT) for no more than 1 week. • Saline: Dissolved 9 g of the powder per 1 L of purified water. Mixed well. Autoclaved at 121° C. for 30 minutes. Stored at room temperature (RT) for no more than 1 week. Prepared the stock solutions of the tested compounds. For compounds: • a) Dispensed 20 ul compound to the wells in column 1, and 20 ul DMSO to the wells in column 2 to 12; • b) Diluted the compounds by transferring 10 ul compounds from column 1 to 20 ul DMSO in column 2; mix with pipette. • c) Repeated until column 11 to get 3×serial dilutions. Column 12 was the DMSO control. A multichannel pipette was used to deliver 1 μl of the diluted compound into each well of the corresponding daughter plate. Scraped 4-8 single colonies from an agar plate into 5 ml saline in a 14 ml Falcon conical tube. Vortexed the tube to suspend the bacteria. Adjusted the turbidity to ˜0.2 (corresponding to 0.5 McFarland) with an Ultrospec 10 Cell density meter. The strain suspension was diluted 200-fold in CAMHB medium and dispense into a sterile reservoir. A multichannel pipette was then used to deliver 99 μl of the diluted inocula into each well of the corresponding daughter plate. Incubate the daughter plates at 37° C., 85% humidity for 18-20 hr. […] A magnifying mirror device was used for ease of scoring the presence or absence of growth in the wells. 96-well micro-plates were photographed. […]
SMILES,MIC [1] [µg/mL],MIC [2] [µg/mL],MIC [3] [µg/mL],MIC [4] [µg/mL],MIC [5] [µg/mL],"MIC (P. aeruginosa PA14; Pseudomonas aeruginosa, PA14, read-out: MICs against P. aeruginosa PA14) [µg/mL]","Compound MICs, Salmonella typhimurium, CMCC 50115 [1] [µg/mL]","Compound MICs, Staphylococcus aureus, NRS384 [2] [µg/mL]","Compound MICs, Acinetobacter baumannii, ATCC 17978 [3] [µg/mL]","Compound MICs, Enterococcus faecalis, ATCC 51575 [4] [µg/mL]","Compound MICs, Escherichia coli, ATCC BAA-198 [5] [µg/mL]",MICs against P. aeruginosa PA14 (P. aeruginosa PA14) [µg/mL]
Nc1nc(N)c2c(ccc3c2ccn3Cc2ccc(F)cc2)n1 [Compound 10],0.088,0.088,0.79,0.01,2.37,25,–,–,–,–,–,–
Nc1nc(N)c2c(ccc3c2ccn3-c2ccc(F)cc2)n1 [Compound 40],–,–,–,–,–,–,0.26,0.26,2.37,0.09,7.11,45
Nc1nc(N)c2c(ccc3c2ccn3Cc2ccc(F)nc2)n1 [Compound 45],–,–,–,–,–,–,0.003,0.26,2.37,0.01,7.11,6.3
Nc1nc(N)c2c(ccc3c2ccn3Cc2cccc(F)n2)n1 [Compound 48],–,–,–,–,–,–,0.003,0.09,0.79,≤0.001,7.11,12.5
Nc1nc(N)c2c(ccc3c2ccn3Cc2csc(C(F)(F)F)n2)n1 [Compound 60],–,–,–,–,–,–,0.79,0.79,21.3,0.09,7.11,–
Nc1nc(N)c2c(ccc3c2ccn3Cc2ccc(-c3ccccn3)cc2)n1 [Compound 61],–,–,–,–,–,–,0.26,0.09,7.11,0.03,7.11,–
C=C(Cn1ccc2c3c(N)nc(N)nc3ccc21)C(=O)OC [Compound 62],–,–,–,–,–,–,0.26,0.79,21.3,0.003,21.3,–
COc1ccnc(Cn2ccc3c4c(N)nc(N)nc4ccc32)c1 [Compound 63],0.26,0.26,21.3,0.09,21.3,–,–,–,–,–,–,–
Nc1nc(N)c2ccc(NCc3ccc(F)cc3)cc2n1 [Compound 64],–,–,–,–,–,–,64,7.11,>64,21.3,64,–
COc1ccc(Cn2ccc3c4c(N)nc(N)nc4ccc32)c(Cl)c1 [Compound 65],–,–,–,–,–,–,0.26,0.09,7.11,0.01,7.11,–
COc1cc(Cn2ccc3c4c(N)nc(N)nc4ccc32)cc(OC)c1 [Compound 66],–,–,–,–,–,–,0.26,0.09,7.11,0.01,2.37,–
COc1cccc(Cn2ccc3c4c(N)nc(N)nc4ccc32)n1 [Compound 67],–,–,–,–,–,–,0.26,0.09,0.26,0.01,2.37,–
Nc1nc(N)c2c(ccc3c2ccn3Cc2cccc(Cl)c2Cl)n1 [Compound 68],–,–,–,–,–,–,0.26,0.03,2.37,0.01,2.37,–
Nc1nc(N)c2c(ccc3c2ccn3Cc2ccc3c(c2)OCO3)n1 [Compound 69],–,–,–,–,–,–,0.26,0.09,7.11,0.03,2.37,–
COc1ccc(Br)cc1Cn1ccc2c3c(N)nc(N)nc3ccc21 [Compound 70],0.26,0.01,2.37,≤ 0.001,2.37,–,–,–,–,–,–,–
COc1cc(Cn2ccc3c4c(N)nc(N)nc4ccc32)cc(OC)c1OC [Compound 71],0.79,0.03,7.11,0.01,2.37,–,–,–,–,–,–,–
